# Patent US7964613B2 (Asahi Kasei Pharma Corporation, priority 2007, dated 2011)
# Assays:
# [1] = biological target: T1, human ROCK1 (Homo sapiens, UniProt Q13464); assay: Measurement of Rho kinase inhibitory activity (ELISA of MBS phosphorylation); type: biochemical; conditions: human ROCK1, MBS substrate, 100 μM ATP, 30° C. for 10 minutes
# T1 construct: His tag (N); host or cells: insect cells (Sf9)
# Summary of the method: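 N-terminal His-tagged human ROCK1 (1-727, Sf9-expressed) phosphorylated plate-immobilized MBS in 20 mM HEPES pH 7.5, 100 μM ATP, 30° C for 10 minutes. Phospho-MBS detected by antibody ELISA (A490); IC50 is concentration giving 50% inhibition.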
# [2] = test system: intraocular pressure; assay: Rabbit intraocular pressure reduction enhancing action, Test Example 7-2 (combination use with timolol maleate); type: in vivo, Japanese white rabbit; conditions: Table 6; 19-1 compound 0.01 weight % aqueous solution 50 μL, Timoptol 50 μL; difference relative to control group at 1, 2, 4 hours; 12 rabbits
# Method: As a test compound, the 19-1 compound was dissolved in physiological saline, and the solution was neutralized by addition of sodium hydroxide (pH 7.0 to 8.0) to prepare a 0.01 weight % aqueous solution (19-1 compound aqueous solution). As a drug for combination use, timolol maleate (trade name: Timoptol, Santen Pharmaceutical) was used as an adrenergic receptor β blocker, as the marketed formulation as it was.
# A Japanese white rabbit having a body weight of about 2 kg was placed in a positioner and naturalized for one week before the experiment. An opthalmologic local anesthesant (Benoxil) was administered to both eyes, and then intraocular pressure before instillation was measured by using a tonometer (Classic 30, Solan). […] The intraocular pressure thereafter was measured for each group 1, 2 and 4 hours after the second administration of the test compound, and the difference of the measured values at each measurement time for the each group and the control group was considered an intraocular pressure reduction value of each group. The largest difference of the intraocular pressure values relative to the control group among those of the measured values of the measurement times was considered the maximum intraocular pressure reduction value (max ? IOP) of each drug group.
# [3] = test system: thoracic aorta ring sample; assay: Rat vascular smooth muscle relaxing action (phenylephrin contraction); conditions: cumulative phenylephrin, contraction relative to 60 mM KCl
# Method: Examination of rat vascular smooth muscle relaxing action was performed as follows. A rat was anesthetized with pentobarbital sodium, and bled from the carotid artery, and then the thoracic aorta was extracted. The extracted vessel was immersed in ice-cooled Krebs-Henseleit nutrient solution bubbled with a mixed gas of 95% O2+5% CO2 to wash out the blood in the internal cavity of the vessel with the nutrient solution, and then stored overnight in the nutrient solution at 4° C. Then, connective tissues and lipids were removed from the vessel under a stereoscopic microscope, and a ring sample having a width of about 3 mm was prepared. The ring sample was hung in an organ bath containing the nutrient solution of 37° C., and a resting tension of 2.5 g was loaded on the sample. After the ring sample was stabilized for about 90 minutes, it was confirmed that a contraction reaction could be obtained by addition of 60 mM KCl alone. A test drug was added to the nutrient solution at an appropriate final concentration, and incubation was performed for 10 minutes. Then, phenylephrin was cumulatively added so that the concentration should become 1 nM, 10 nM, 100 nM, 1 μM and 10 μM.
# T1 sequence (Q13464 1-727): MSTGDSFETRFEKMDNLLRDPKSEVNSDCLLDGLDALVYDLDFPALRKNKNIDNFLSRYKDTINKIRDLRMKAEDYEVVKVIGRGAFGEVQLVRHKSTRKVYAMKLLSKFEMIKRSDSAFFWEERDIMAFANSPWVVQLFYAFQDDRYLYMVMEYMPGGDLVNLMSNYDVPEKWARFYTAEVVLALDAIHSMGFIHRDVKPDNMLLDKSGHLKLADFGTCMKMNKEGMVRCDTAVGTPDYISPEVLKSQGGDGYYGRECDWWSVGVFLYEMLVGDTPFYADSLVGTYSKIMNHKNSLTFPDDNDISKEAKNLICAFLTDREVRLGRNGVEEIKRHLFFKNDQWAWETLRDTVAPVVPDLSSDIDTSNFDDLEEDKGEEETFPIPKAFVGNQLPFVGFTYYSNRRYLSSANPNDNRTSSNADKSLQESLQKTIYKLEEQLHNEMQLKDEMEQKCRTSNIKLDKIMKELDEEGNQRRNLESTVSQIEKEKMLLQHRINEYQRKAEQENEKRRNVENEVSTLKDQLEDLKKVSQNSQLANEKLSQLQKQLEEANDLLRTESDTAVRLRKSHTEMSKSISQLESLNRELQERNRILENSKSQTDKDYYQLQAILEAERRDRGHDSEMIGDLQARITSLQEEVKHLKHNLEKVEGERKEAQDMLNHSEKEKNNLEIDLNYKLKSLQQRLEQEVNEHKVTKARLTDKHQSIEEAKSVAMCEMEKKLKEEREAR
IC50 [1] [µM],IC50 [3] [µM],SMILES,Max IOP (maximum intraocular pressure reduction value) [2] [mmHg]
< 1,–,CN[C@H]1CCN(S(=O)(=O)c2cccc3cncc(C)c23)C1 [Example 8-3],–
< 1,–,"N[C@H]1CCN(S(=O)(=O)c2cccc3cncc(Cl)c23)C1 [Example 19-1, (S)-3-Amino-1-(4-chloro-5-isoquinolinesulfonyl)pyrrolidine]",4.1
< 1,0.3,"CN[C@H]1CCN(S(=O)(=O)c2cccc3cncc(Cl)c23)C1 [Example 19-3, (S)-1-(4-Chloro-5-isoquinolinesulfonyl)-3-(methylamino)pyrrolidine]",–
< 1,0.1,"CN[C@H]1CCN(S(=O)(=O)c2cccc3c(O)ncc(Cl)c23)C1 [Example 36-1, (S)-1-(1-Hydroxy-4-chloro-5-isoquinolinesulfonyl)-3-(methylamino)pyrrolidine]",–
